Experimental data taken from patent US8962666B2, “Method for improving cartilage repair and/or preventing cartilage degeneration in a joint” (Maastricht University, priority 2009, dated 2015).

Experiments:
[1] = Parecoxib concentration in synovial joint fluid after Bio-Gel injection in Hoffa's fat pad (HPLC); type: in vivo, Wistar rats; conditions: 0.1 ml Bio-Gel containing 500 μg Parecoxib in Hoffa's fat pad
Procedure: After induction of general anaesthesia, both knees of Wistar rats were shaved and prepared for aseptic surgery. The centre of the patella tendon was identified. A 28 G needle with a 1 ml syringe was used to penetrate the centre patella tendon. Directly after the patella tendon is penetrated and 0.1 ml of the Bio-Gel containing 500 μg of Parecoxib was injected in Hoffa's fad pad. Directly after injection, 1 day, 5 days, 10 days and 30 days after injection the rats were sacrificed.
The concentration of parecoxib in the SJF was examined using a high-performance liquid chromatography

[2] = test system: cartilage only defect on medial femoral condyles; assay: Goat cartilage defect repair (MACI / microfracture) with Bio-Gel containing Parecoxib in Hoffa's fatpad; type: in vivo, Dutch milk goats; conditions: controlled release from Hoffa's fatpad; summary statement
Procedure: Surgical procedure: Skeletally mature Dutch milk goats were used for this study. During the first operation, both knee joints of the goats were opened using a medial parapatellar incision. Using a 8 mm in diameter dermal punch a cartilage only defect was created on both medial femoral condyles. The cartilage of both sides was minced and after an overnight collagenase treatment, cells were isolated and expanded in monolayer. […] Consequently these cells were seeded and allowed to attach in a collagen carrier for 24 hrs as described earlier as Matrix-supported Autologous Chondrocyte Implantation (MACI). Hereafter a second operation was performed. The knee joints were opened and one the cartilage defect of one knee joint was repaired using the MACI method. The defect in the other knee joint was repaired using microfracturing as described by […] et al. In 10 goats Hoffa's fatpad was injected (as described earlier) with a Bio-Gel containing 1.5 mg of Parecoxib, in 10 goats Hoffa's fatpad was injected (as described earlier) with a Bio-Gel only, and in 10 goats no injection was performed. Goats were allowed full-weight bearing after both surgical procedures. Histological evaluation: 3 months after the second operation, goats were sacrificed. […] Mankin scores for OA grading and O'Driscoll scores for cartilage repair were scored by 2 blinded individuals.

[3] = test system: anterior cruciate ligament-transected (ACLT) knees; conditions: cited from earlier work
[4] = intra-articular parecoxib injection

SMILES: CCC(=O)NS(=O)(=O)c1ccc(-c2c(-c3ccccc3)noc2C)cc1 [Parecoxib]
- intra-articular level of parecoxib ([1]; after 30 days follow): remained stable
- time of maximum parecoxib level in the SJF ([1]; time after injection): 1 days
- cartilage repair using MACI and microfracturing [2]: significantly improved
- cartilage degeneration ([3]; ACLT knees, intra-articular injection): significant inhibition
- effect on cartilage and synovium of normal knees ([3]; intra-articular parecoxib alone, naive rats): did not have any effect
- glutamate and aspartate levels [3, 4]: reduced
- synovial inflammation [3, 4]: suppressed
